The text below walks through data of patent US9040498B2, “1,2,3-Triazolyl purine derivatives” (RESEARCH FOUNDATION OF THE CITY UNIVERSITY OF NEW YORK, priority 2012, dated 2015).

Like-named read-outs stand apart in the source and are kept apart here.

In series [1] the test system is vesicular stomatitis virus (VSV). The format is cell-based. The note with it: human cervix carcinoma HeLa cell cultures; read-out: anti-vesicular stomatitis virus (VSV) activity.
Series [2] concerns HeLa and HEL cell cultures.
Series [3] relates to ovarian (1A9) cancer cell line. The series is described as follows: GI50 against ovarian cancer cell line 1A9. Conditions: read-out: GI50 1A9.
For series [4], the system named is paclitaxel-resistant (PTX22) ovarian cancer cell line. The series can be described thus: GI50 against paclitaxel-resistant ovarian cancer cell line PTX22. Conditions: read-out: GI50 PTX22.
The test system of series [5] is HEL cell. The series is described as follows: HEL cell effects: cell morphology (minimum cytotoxic concentration). Conditions: minimum cytotoxic concentration causing microscopically detectable alteration of cell morphology.
In series [6] the test system is vesicular stomatitis virus (VSV). The class given is cell-based. Conditions: human embryonic lung (HEL) fibroblast cell cultures.
The test system of series [7] is p53KO HCT116 cancer cell line. The series can be described thus: GI50 against p53KO HCT116 cancer cell line. Conditions: read-out: GI50 p53KO.
In series [8] the test system is murine leukemia L1210, human lymphocyte CEM, and HeLa cells. The series is described as follows: Cytostatic activity against L1210, CEM and HeLa cells. Conditions: for cytostatic activity (in words): L1210, CEM, HeLa; for IC50: range over L1210 (48 h), CEM (72 h), HeLa (96 h). The format is cell-based. As for the experimental part:
The cytostatic effects of the test compounds on murine leukemia cells (L1210), human T-lymphocyte cells (CEM) and human cervix carcinoma cells (HeLa) were evaluated as follows: an appropriate number of cells suspended in growth medium were allowed to proliferate in 200-μL-wells of 96-well-microtiter plates in the presence of variable amounts of test compounds at 37° C. in a humidified CO2-controlled atmosphere. After 48 h (L1210), 72 h (CEM) or 96 h (HeLa), the number of cells was counted in a Coulter counter. The IC50 value is defined as the concentration required to inhibit cell proliferation by 50%.

For series [9], the system named is colorectal (HCT116) cancer cell line. The series can be described thus: GI50 against colorectal cancer cell line HCT116. The note with it: read-out: GI50 HCT116.
In series [10] the test system is paclitaxel-resistant (PTX10) ovarian cancer cell line. The series can be described thus: GI50 against paclitaxel-resistant ovarian cancer cell line PTX10. The note with it: read-out: GI50 PTX10.
The test system of a further series is CMV AD-169 strain. The series can be described thus: Anti-CMV activity in HEL cell cultures, AD-169 strain. The format is cell-based, cytomegalovirus. The note with it: HEL cell cultures, reduce virus plaque formation by 50%, virus input 100 PFU.
The test system of another series is CMV Davis strain. The series is described as follows: Anti-CMV activity in HEL cell cultures, Davis strain. Conditions: HEL cell cultures, reduce virus plaque formation by 50%, virus input 100 PFU. The class given is cell-based, cytomegalovirus.
The test system of another series is cytomegalovirus (CMV). The series is described as follows: Anti-CMV activity in HEL cells (both strains). The format is cell-based. The note with it: for anti-CMV activity (in words): HEL cells.
For series [11], the system named is HEL cell. The series can be described thus: HEL cell effects: cell growth. Conditions: read-out: HEL cell effects cell growth (IC50); concentration required to reduce cell growth by 50%.
Setting [12] is: paclitaxel-resistant ovarian PTX22, four days.
Setting [13] is: paclitaxel-resistant ovarian PTX10, four days.

Turning to `OC[C@H]1O[C@@H](n2cnc3c(O)nc(-n4cc(-c5ccccc5)nn4)nc32)[C@H](O)[C@@H]1O` [Compound 17, 2-[4-(Phenyl)-1,2,3-triazol-1H-yl]inosine], the EC50 is 27 ± 2.4 µM in series [1], above 50 µM in the series on CMV AD-169 strain and above 50 µM with CMV Davis strain. In series [2], this compound gave a toxicity observed of 100 to 240 µM. Moreover, the GI50 in [3] (ovarian 1A9, four days) is 22.8 µM; in series [4] (setting [12]), 4.76 µM; in [7] (p53KO HCT116, four days), above 50 µM; in series [9] (colorectal HCT116, four days) it was above 50 µM; in [10] (setting [13]) it was above 50 µM. The “HEL cell effects cell morphology (MDC)” value with HEL cell [5] is 240 μM. Besides, the “anti-VSV activity (in words)” value in [6] is listed as “could not be confirmed”. Further, the “cytostatic activity (in words)” value in series [8] is given as “most cytostatic”. In addition, the IC50 in [8] lay in the range of 34 to 124 µM.

Regarding `CCCCc1cn(-c2nc(O)c3ncn([C@@H]4O[C@H](CO)[C@@H](O)[C@H]4O)c3n2)nn1` [Compound 23, 2-(4-n-Butyl-1,2,3-triazol-1H-yl)inosine], the “anti-CMV activity (in words)” value with cytomegalovirus (CMV) is “somewhat more pronounced”. The EC50 in the series on cytomegalovirus (CMV) (range over the CMV strains, read-out: EC50 against CMV in HEL cells) is 39 to 73 µM; in the series on CMV AD-169 strain, 73 µM; in the series with CMV Davis strain, 39 µM. Besides, the GI50 in series [3] (ovarian 1A9, four days) was 37 µM; in series [4] (setting [12]) it was 28.1 µM; in [7] (p53KO HCT116, four days), above 50 µM; in series [9] (colorectal HCT116, four days) it was above 50 µM; in series [10] (setting [13]), above 50 µM. Also, the IC50 in the series with HEL cell [11] is above 250 µM.

As to “2-[4-(Ferrocenyl)-1,2,3-triazol-1H-yl]inosine [Compound 22]”, the “anti-CMV activity (in words)” value with cytomegalovirus (CMV) is given as “marginal activity”. Also, the GI50 in [3] (ovarian 1A9, four days) is 29.7 µM; in series [4] (setting [12]), 12.9 µM; in [7] (p53KO HCT116, four days), above 50 µM; in series [9] (colorectal HCT116, four days), above 50 µM; in series [10] (setting [13]), above 50 µM. Besides, the “HEL cell effects cell morphology (MDC)” value with HEL cell [5] was 2190 μM. The IC50 with HEL cell [11] was found to be 123 µM. Also, the EC50 with CMV AD-169 strain was found to be 120 µM; with CMV Davis strain, 123 µM.

Consider `OC[C@H]1O[C@@H](n2cnc3c(N4CCOCC4)nc(-n4cc(-c5ccccc5)nn4)nc32)[C@@H](O)C1O` (stereo partly drawn) [Compound 34, 6-(Morpholin-4-yl)-2-(4-phenyl-1,2,3-triazol-1H-yl)-9-(β-D-ribofuranosyl)purine], for which the “minimum detectable morphology-altering (cytotoxic) concentration (MCC)” value in the series on green monkey kidney Vero is 210 μM; in the series with canine kidney MDCK it was 8.3 μM; in the series with HeLa (HeLa (first mention)), 42 μM; with HeLa (HeLa cells), at least 40 μM; in the series on feline kidney CRFK, 83 μM. Besides, the GI50 was 0.18 µM in series [3] (96 h); 0.95 µM in [4] (96 h); 10.4 µM in [7] (Homo sapiens, HCT-116, 96 h); 3.7 µM in series [9] (Homo sapiens, HCT-116, 96 h); 11.7 µM in series [10] (PTX10, 96 h). In addition, in the series on HEL cell [5], the “HEL cell effects cell morphology (MDC)” value came to 240 μM. The “cytostatic activity (in words)” value in series [8] was “poorly cytostatic”. In series [8], the IC50 lay in the range of 98 to 185 µM. Further, the EC50 with CMV AD-169 strain (Human betaherpesvirus 5, AD169) is above 40 µM; with CMV Davis strain (Human betaherpesvirus 5) it was above 40 µM.

The GI50 is the concentration that inhibits growth by half. In general, IC50 refers to the concentration that gives 50% inhibition.
